Reference: PubChem BioAssay (NCI)
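The compound was tested at five concentrations on cells cultured in 96-well plates, with a 48-hour exposure period. The concentration for 50% growth inhibition is given as GI50. TGI is the concentration that stops growth completely.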

Tests used:
Assay in all cases: inhibition of tumour cell growth, NCI panel, 48 h
786-0 renal = tested on: 786-0 renal
A498 renal = tested on: A498 renal
A549 NSCLC = tested on: A549 NSCLC
ACHN renal = tested on: ACHN renal
BT-549 breast = tested on: BT-549 breast
CAKI-1 renal = tested on: CAKI-1 renal
CCRF-CEM leukemia = tested on: CCRF-CEM leukemia
COLO 205 colon = tested on: COLO 205 colon
DU-145 prostate = tested on: DU-145 prostate
EKVX NSCLC = tested on: EKVX NSCLC
HCC-2998 colon = tested on: HCC-2998 colon
HCT-116 colon = tested on: HCT-116 colon
HCT-15 colon = tested on: HCT-15 colon
HL-60(TB) leukemia = tested on: HL-60(TB) leukemia
HOP-62 NSCLC = tested on: HOP-62 NSCLC
HOP-92 NSCLC = tested on: HOP-92 NSCLC
HS 578T breast = tested on: HS 578T breast
HT29 colon = tested on: HT29 colon
IGROV1 ovarian = tested on: IGROV1 ovarian
K-562 leukemia = tested on: K-562 leukemia
KM12 colon = tested on: KM12 colon
LOX IMVI melanoma = tested on: LOX IMVI melanoma
M14 melanoma = tested on: M14 melanoma
MALME-3M melanoma = tested on: MALME-3M melanoma
MCF7 breast = tested on: MCF7 breast
MDA-MB-231 breast = tested on: MDA-MB-231 breast
MDA-MB-435 = tested on: MDA-MB-435
MOLT-4 leukemia = tested on: MOLT-4 leukemia
NCI-H226 lung = tested on: NCI-H226 lung
NCI-H460 lung = tested on: NCI-H460 lung
NCI-H522 lung = tested on: NCI-H522 lung
NCI/ADR-RES ovarian = tested on: NCI/ADR-RES ovarian
OVCAR-3 ovarian = tested on: OVCAR-3 ovarian
OVCAR-4 ovarian = tested on: OVCAR-4 ovarian
OVCAR-5 ovarian = tested on: OVCAR-5 ovarian
OVCAR-8 ovarian = tested on: OVCAR-8 ovarian
PC-3 prostate = tested on: PC-3 prostate
RPMI-8226 leukemia = tested on: RPMI-8226 leukemia
RXF 393 renal = tested on: RXF 393 renal
SF-268 CNS = tested on: SF-268 CNS
SF-295 CNS = tested on: SF-295 CNS
SF-539 CNS = tested on: SF-539 CNS
SK-MEL-2 melanoma = tested on: SK-MEL-2 melanoma
SK-MEL-28 melanoma = tested on: SK-MEL-28 melanoma
SK-MEL-5 melanoma = tested on: SK-MEL-5 melanoma
SK-OV-3 ovarian = tested on: SK-OV-3 ovarian
SN12C renal = tested on: SN12C renal
SNB-19 CNS = tested on: SNB-19 CNS
SNB-75 CNS = tested on: SNB-75 CNS
SR leukemia = tested on: SR leukemia
SW-620 colon = tested on: SW-620 colon
T-47D breast = tested on: T-47D breast
TK-10 renal = tested on: TK-10 renal
U251 CNS = tested on: U251 CNS
UACC-257 melanoma = tested on: UACC-257 melanoma
UACC-62 melanoma = tested on: UACC-62 melanoma
UO-31 renal = tested on: UO-31 renal

For `COc1ccc(CCOc2cc3c(cc2OC)CCN(C(=O)NCc2cocn2)C3c2ccc(C)cc2C)cc1` (centres undefined), which GI50 (786-0 renal) is on record?
The GI50 was 617 nM.

What about the TGI (786-0 renal) of the same compound?
Its TGI is 8110 nM.

And the GI50 (A498 renal)?
The GI50 was 1480 nM.

And the TGI (A498 renal)?
Its TGI is 6430 nM.

And the GI50 (A549 NSCLC)?
Its GI50 is 1080 nM.

What about the TGI (A549 NSCLC) of the same compound?
The TGI was over 100000 nM.

And the GI50 (ACHN renal)?
Its GI50 is 628 nM.

What about the TGI (ACHN renal) of the same compound?
The TGI was 8890 nM.

What about the GI50 (BT-549 breast) of the same compound?
Its GI50 is 1010 nM.

And the TGI (BT-549 breast)?
The TGI was 3570 nM.

And the GI50 (CAKI-1 renal)?
Its GI50 is 740 nM.

What about the TGI (CAKI-1 renal) of the same compound?
The TGI was 7240 nM.

What about the GI50 (CCRF-CEM leukemia) of the same compound?
The GI50 was 458 nM.

And the TGI (CCRF-CEM leukemia)?
Its TGI is 9660 nM.

And the GI50 (COLO 205 colon)?
The GI50 was 835 nM.

And the TGI (COLO 205 colon)?
The TGI was 2760 nM.

And the GI50 (DU-145 prostate)?
The GI50 was 790 nM.

And the TGI (DU-145 prostate)?
The TGI was 5890 nM.

And the GI50 (EKVX NSCLC)?
The GI50 was 3140 nM.

What about the TGI (EKVX NSCLC) of the same compound?
Its TGI is over 100000 nM.

And the GI50 (HCC-2998 colon)?
Its GI50 is 1320 nM.

What about the TGI (HCC-2998 colon) of the same compound?
Its TGI is over 35000 nM.

And the GI50 (HCT-116 colon)?
Its GI50 is 404 nM.

What about the TGI (HCT-116 colon) of the same compound?
Its TGI is 21800 nM.

What about the GI50 (HCT-15 colon) of the same compound?
Its GI50 is 407 nM.

What about the TGI (HCT-15 colon) of the same compound?
The TGI was over 37500 nM.

And the GI50 (HL-60(TB) leukemia)?
Its GI50 is 273 nM.

What about the TGI (HL-60(TB) leukemia) of the same compound?
The TGI was 833 nM.

What about the GI50 (HOP-62 NSCLC) of the same compound?
The GI50 was 1020 nM.

What about the TGI (HOP-62 NSCLC) of the same compound?
The TGI was 17100 nM.

And the GI50 (HOP-92 NSCLC)?
The GI50 was 3470 nM.

And the TGI (HOP-92 NSCLC)?
The TGI was 18200 nM.

And the GI50 (HS 578T breast)?
Its GI50 is 845 nM.

And the TGI (HS 578T breast)?
Its TGI is 5150 nM.

What about the GI50 (HT29 colon) of the same compound?
Its GI50 is 371 nM.

What about the TGI (HT29 colon) of the same compound?
Its TGI is 2150 nM.

And the GI50 (IGROV1 ovarian)?
Its GI50 is 905 nM.

And the TGI (IGROV1 ovarian)?
The TGI was over 100000 nM.

And the GI50 (K-562 leukemia)?
Its GI50 is 355 nM.

And the TGI (K-562 leukemia)?
The TGI was over 55200 nM.

What about the GI50 (KM12 colon) of the same compound?
Its GI50 is 542 nM.

What about the TGI (KM12 colon) of the same compound?
The TGI was 8200 nM.

What about the GI50 (LOX IMVI melanoma) of the same compound?
Its GI50 is 388 nM.

And the TGI (LOX IMVI melanoma)?
The TGI was 4610 nM.

What about the GI50 (M14 melanoma) of the same compound?
The GI50 was 765 nM.

What about the TGI (M14 melanoma) of the same compound?
Its TGI is 5740 nM.

And the GI50 (MALME-3M melanoma)?
Its GI50 is 1490 nM.

And the TGI (MALME-3M melanoma)?
The TGI was 11700 nM.

What about the GI50 (MCF7 breast) of the same compound?
Its GI50 is 452 nM.

And the TGI (MCF7 breast)?
Its TGI is over 38700 nM.

And the GI50 (MDA-MB-231 breast)?
Its GI50 is 834 nM.

What about the TGI (MDA-MB-231 breast) of the same compound?
Its TGI is 6490 nM.

And the GI50 (MDA-MB-435)?
The GI50 was 296 nM.

And the TGI (MDA-MB-435)?
The TGI was 919 nM.

And the GI50 (MOLT-4 leukemia)?
Its GI50 is 537 nM.

What about the TGI (MOLT-4 leukemia) of the same compound?
Its TGI is over 24800 nM.

And the GI50 (NCI-H226 lung)?
Its GI50 is 1020 nM.

And the TGI (NCI-H226 lung)?
Its TGI is 5160 nM.

What about the GI50 (NCI-H460 lung) of the same compound?
The GI50 was 374 nM.

And the TGI (NCI-H460 lung)?
The TGI was 3810 nM.

And the GI50 (NCI-H522 lung)?
Its GI50 is 243 nM.

What about the TGI (NCI-H522 lung) of the same compound?
The TGI was 634 nM.

And the GI50 (NCI/ADR-RES ovarian)?
The GI50 was 610 nM.

What about the TGI (NCI/ADR-RES ovarian) of the same compound?
The TGI was over 34400 nM.

And the GI50 (OVCAR-3 ovarian)?
Its GI50 is 603 nM.

And the TGI (OVCAR-3 ovarian)?
The TGI was 10300 nM.

And the GI50 (OVCAR-4 ovarian)?
The GI50 was 1510 nM.

And the TGI (OVCAR-4 ovarian)?
The TGI was over 100000 nM.

And the GI50 (OVCAR-5 ovarian)?
The GI50 was 1350 nM.

What about the TGI (OVCAR-5 ovarian) of the same compound?
The TGI was over 100000 nM.

And the GI50 (OVCAR-8 ovarian)?
Its GI50 is 358 nM.

And the TGI (OVCAR-8 ovarian)?
Its TGI is 10100 nM.

What about the GI50 (PC-3 prostate) of the same compound?
The GI50 was 631 nM.

And the TGI (PC-3 prostate)?
Its TGI is over 35100 nM.

What about the GI50 (RPMI-8226 leukemia) of the same compound?
The GI50 was 370 nM.

And the TGI (RPMI-8226 leukemia)?
The TGI was 1660 nM.

What about the GI50 (RXF 393 renal) of the same compound?
Its GI50 is 425 nM.

And the TGI (RXF 393 renal)?
The TGI was 2540 nM.

And the GI50 (SF-268 CNS)?
Its GI50 is 940 nM.

And the TGI (SF-268 CNS)?
Its TGI is 8920 nM.

What about the GI50 (SF-295 CNS) of the same compound?
Its GI50 is 897 nM.

And the TGI (SF-295 CNS)?
Its TGI is 7030 nM.

And the GI50 (SF-539 CNS)?
The GI50 was 346 nM.

What about the TGI (SF-539 CNS) of the same compound?
Its TGI is 1630 nM.

What about the GI50 (SK-MEL-2 melanoma) of the same compound?
The GI50 was 946 nM.

And the TGI (SK-MEL-2 melanoma)?
Its TGI is 3890 nM.

What about the GI50 (SK-MEL-28 melanoma) of the same compound?
The GI50 was 1010 nM.

And the TGI (SK-MEL-28 melanoma)?
The TGI was 7290 nM.

And the GI50 (SK-MEL-5 melanoma)?
Its GI50 is 509 nM.

What about the TGI (SK-MEL-5 melanoma) of the same compound?
Its TGI is 1390 nM.

And the GI50 (SK-OV-3 ovarian)?
Its GI50 is 1260 nM.

And the TGI (SK-OV-3 ovarian)?
The TGI was 40700 nM.

What about the GI50 (SN12C renal) of the same compound?
The GI50 was 831 nM.

What about the TGI (SN12C renal) of the same compound?
The TGI was 4850 nM.

What about the GI50 (SNB-19 CNS) of the same compound?
Its GI50 is 1600 nM.

What about the TGI (SNB-19 CNS) of the same compound?
The TGI was 21900 nM.

And the GI50 (SNB-75 CNS)?
Its GI50 is 761 nM.

And the TGI (SNB-75 CNS)?
Its TGI is 5260 nM.

What about the GI50 (SR leukemia) of the same compound?
Its GI50 is 341 nM.

And the TGI (SR leukemia)?
The TGI was 2030 nM.

And the GI50 (SW-620 colon)?
The GI50 was 507 nM.

What about the TGI (SW-620 colon) of the same compound?
The TGI was over 100000 nM.

And the GI50 (T-47D breast)?
The GI50 was 1060 nM.

And the TGI (T-47D breast)?
The TGI was 9020 nM.

What about the GI50 (TK-10 renal) of the same compound?
The GI50 was 2960 nM.

And the TGI (TK-10 renal)?
Its TGI is 26700 nM.

What about the GI50 (U251 CNS) of the same compound?
Its GI50 is 605 nM.

What about the TGI (U251 CNS) of the same compound?
Its TGI is 4530 nM.

And the GI50 (UACC-257 melanoma)?
The GI50 was 1390 nM.

What about the TGI (UACC-257 melanoma) of the same compound?
The TGI was 19800 nM.

And the GI50 (UACC-62 melanoma)?
The GI50 was 495 nM.

What about the TGI (UACC-62 melanoma) of the same compound?
Its TGI is 5930 nM.

And the GI50 (UO-31 renal)?
Its GI50 is 1180 nM.

And the TGI (UO-31 renal)?
The TGI was 14200 nM.
